Assay results taken from ChEMBL document CHEMBL3727358, “Inhibitors of inducible form of 6-phosphofructose-2-kinase” (2014).

Biological target: 6-phosphofructo-2-kinase/fructose-2,6-bisphosphatase 3 (Homo sapiens, UniProt Q16875)
Experiment: Inhibition of iPFK2 (unknown origin) assessed as reduction in enzyme-mediated fructose-6-phosphate phosphorylation by measuring ATP consumption incubated for 3 hrs by luciferase-luciferin-coupled chemiluminescence assay

Sequence of 6-phosphofructo-2-kinase/fructose-2,6-bisphosphatase 3 (Q16875 whole entry): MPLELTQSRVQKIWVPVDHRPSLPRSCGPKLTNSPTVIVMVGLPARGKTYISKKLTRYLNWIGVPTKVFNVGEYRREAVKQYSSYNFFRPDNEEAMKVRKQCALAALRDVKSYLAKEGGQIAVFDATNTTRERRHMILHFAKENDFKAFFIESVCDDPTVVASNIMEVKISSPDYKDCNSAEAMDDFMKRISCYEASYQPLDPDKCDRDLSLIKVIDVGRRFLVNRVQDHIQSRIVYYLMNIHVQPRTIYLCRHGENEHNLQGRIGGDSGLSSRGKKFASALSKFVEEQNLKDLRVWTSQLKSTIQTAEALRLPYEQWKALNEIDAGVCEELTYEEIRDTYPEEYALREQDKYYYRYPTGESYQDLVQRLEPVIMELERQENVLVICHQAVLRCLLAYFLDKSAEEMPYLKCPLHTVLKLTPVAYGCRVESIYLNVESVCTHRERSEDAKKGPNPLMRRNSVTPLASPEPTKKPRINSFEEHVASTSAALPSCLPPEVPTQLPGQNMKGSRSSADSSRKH

Compound	IC50
COc1cccc(CNc2cc(-c3ccc4occ(C)c4c3)nc(C)n2)c1	500 nM
CCc1coc2ccc(-c3cc(N[C@@H](C)c4cccc(OC)c4)nc(C)n3)cc12	> 1000 nM
Cc1nc(NCCCN(C)c2ccccc2)cc(-c2ccc3ncsc3c2)n1	> 1000 nM
COc1cccc(-c2cc(NC(C)c3cccc(S(N)(=O)=O)c3)nc(C)n2)c1 (stereo not drawn)	> 1000 nM
COc1cccc([C@H](C)Nc2cc(-c3cccc(OC(F)(F)F)c3)nc(C)n2)c1	> 1000 nM
Cc1nc(NC(C)c2ccnc(Cl)c2)cc(-c2ccc3ncsc3c2)n1 (stereo not drawn)	500 nM
Cc1nc(N[C@@H]2CCCc3ccccc32)cc(-c2ccc(F)cc2)n1	500 nM
CNC(=O)COc1cccc(C(C)Nc2cc(-c3cccc(OC)c3)nc(C)n2)c1 (stereo not drawn)	500 nM
Cc1nc(NC(C)c2cccc(OCc3noc(C)n3)c2)cc(-c2ccc3ncsc3c2)n1 (stereo not drawn)	500 nM
COc1cccc(-c2cc(NC(C)c3cccc(S(=O)(=O)NCC#N)c3)nc(C)n2)c1 (stereo not drawn)	500 nM
Cc1nc(N[C@@H]2CCCc3ccccc32)cc(-c2cccc(C=O)c2)n1	> 1000 nM
CCOC(=O)CCCOc1cccc(C(C)Nc2cc(-c3ccc4ccn(C)c4c3)nc(C)n2)c1 (stereo not drawn)	500 nM
Cc1ccc([C@H](C)Nc2cc(-c3ccc4ccn(C)c4c3)nc(C)n2)cc1	500 nM
CNC(=O)COc1cccc(C(C)Nc2cc(-c3ccc4c(c3)OCO4)nc(C)n2)c1 (stereo not drawn)	500 nM
Cc1nc(NC[C@@H](C)c2ccccc2)cc(-c2ccc3ncsc3c2)n1	> 1000 nM
CCc1cccc(-c2cc(N[C@@H]3CCCc4ccccc43)nc(C)n2)c1	> 1000 nM
Cc1nc(N[C@@H]2CCCc3ccccc32)cc(-c2cccc(C(N)=O)c2)n1	> 1000 nM
COc1cccc(-c2cc(NC(C)c3cccc(Br)c3)nc(C)n2)c1 (stereo not drawn)	> 1000 nM
CCOc1cccc(-c2cc(N[C@@H]3CCCc4ccccc43)nc(C)n2)c1	> 1000 nM
COc1ccc2c(c1)C(Nc1cc(-c3ccc4ncsc4c3)nc(C)n1)CCC2 (stereo not drawn)	> 1000 nM
Cc1nc(N[C@@H]2CCCc3ccccc32)cc(-c2ccc(OC(F)(F)F)cc2)n1	> 1000 nM
Cc1nc(NC2Cc3ccccc3C2)cc(-c2ccc3ncsc3c2)n1	500 nM
CCCCC(CC)CNc1cc(-c2ccc3ncsc3c2)nc(C)n1 (stereo not drawn)	500 nM
COc1cccc(-c2cc(NC(C)c3cccc(S(=O)(=O)N(CC#N)C(=O)OC(C)(C)C)c3)nc(C)n2)c1 (stereo not drawn)	> 1000 nM
C#CCNS(=O)(=O)c1cccc(C(C)Nc2cc(-c3ccc4ncsc4c3)nc(C)n2)c1 (stereo not drawn)	500 nM
Cc1nc(NCCc2ccncc2)cc(-c2ccc3ncsc3c2)n1	> 1000 nM

Compound	IC50
COc1cccc(-c2cc(NC(C)c3cccc(O)c3)nc(C)n2)c1 (stereo not drawn)	> 1000 nM
Cc1nc(N[C@@H](C)c2ccc(Cl)cc2)cc(-c2ccc3ccn(C)c3c2)n1	> 1000 nM
Cc1nc(N[C@@H]2CCCc3ccccc32)cc(-c2cccnc2)n1	> 1000 nM
CNC(=O)COc1cccc(C(C)Nc2cc(-c3cccc(OC)c3Cl)nc(C)n2)c1 (stereo not drawn)	500 nM
CCOC(=O)CCCOc1cccc(C(C)Nc2cc(-c3ccc4ncsc4c3)nc(C)n2)c1 (stereo not drawn)	> 1000 nM
Cc1nc(NCc2cc(-c3ccccc3)no2)cc(-c2ccc3ncsc3c2)n1	> 1000 nM
Cc1ccc([C@H](C)Nc2cc(-c3ccc4occ(C)c4c3)nc(C)n2)cc1	500 nM
Cc1nc(NC(C)c2cccc(C#N)c2)cc(-c2ccc3ncsc3c2)n1 (stereo not drawn)	500 nM
COc1cccc([C@H](C)Nc2cc(-c3ccnc(C)c3)nc(C)n2)c1	> 1000 nM
CNC(=O)c1cc(-c2cc(N[C@@H]3CCCc4ccccc43)nc(C)n2)ccc1Cl	> 1000 nM
Cc1nc(NCCc2c[nH]cn2)cc(-c2ccc3ncsc3c2)n1	> 1000 nM
Cc1nc(N[C@@H]2CCCc3ccccc32)cc(-c2ccncc2)n1	> 1000 nM
Cc1nc(N[C@@H]2CCCc3ccccc32)cc(-c2ccc(N(C)C)cc2)n1	> 1000 nM
Cc1nc(N[C@H](C)c2cccc(-c3cnn(C)c3)c2)cc(-c2ccc3occ(C)c3c2)n1	500 nM
CCc1coc2ccc(-c3cc(NC(C)c4cccc(O)c4)nc(C)n3)cc12 (stereo not drawn)	> 1000 nM
Cc1nc(NCC2CCCN(C(=O)OC(C)(C)C)C2)cc(-c2ccc3ncsc3c2)n1 (stereo not drawn)	> 1000 nM
Cc1nc(NC(C)c2cccc(-c3noc(C)n3)c2)cc(-c2ccc3ncsc3c2)n1 (stereo not drawn)	> 1000 nM
Cc1nc(NC(C)c2cccc(O)c2)cc(-c2ccc3ncsc3c2)n1 (stereo not drawn)	500 nM
Cc1nc(NC(C)c2cccc(-c3cnn(C)c3)c2)cc(-c2ccc3[nH]ccc3c2)n1 (stereo not drawn)	500 nM
Cc1nc(NC[C@@H]2CCCN(C(=O)OC(C)(C)C)C2)cc(-c2ccc3ncsc3c2)n1	> 1000 nM
COc1cccc([C@H](C)Nc2cc(N[C@@H]3CCCc4ccccc43)nc(C)n2)c1	> 1000 nM
Cc1nc(N[C@@H]2CCCc3ccccc32)cc(-c2cccc(CO)c2)n1	> 1000 nM
Cc1nc(N[C@@H]2CCCc3ccccc32)cc(-c2ccc3c(c2)OCCN3C)n1	> 1000 nM
CC(=O)c1cccc(-c2cc(N[C@@H]3CCCc4ccccc43)nc(C)n2)c1	> 1000 nM
COc1cccc(C(C)Nc2cc(-c3ccc4occ(C)c4c3)nc(C)n2)c1F (stereo not drawn)	> 1000 nM
COC(=O)CNc1cccc(C(C)Nc2cc(-c3cccc(OC)c3)nc(C)n2)c1 (stereo not drawn)	> 1000 nM

Compound	IC50
COc1cccc([C@H](C)Nc2cc(-c3cccc(OC)c3F)nc(C)n2)c1	500 nM
COc1cccc([C@H](C)Nc2cc(-c3cccc(C)c3)nc(C)n2)c1	500 nM
COC(=O)CNS(=O)(=O)c1cccc(C(C)Nc2cc(-c3cccc(OC)c3)nc(C)n2)c1 (stereo not drawn)	> 1000 nM
COc1cccc([C@H](C)Nc2cc(-c3ccc4c(ccn4C)c3)nc(C)n2)c1	> 1000 nM
Cc1nc(N[C@@H]2CCCc3ccccc32)cc(-c2ccc3ccccc3c2)n1	500 nM
Cc1nc(N[C@@H]2CCCc3ccccc32)cc(-c2cccc(N)c2)n1	> 1000 nM
COc1cccc(-c2cc(NC(C)c3cccc(OCC#N)c3)nc(C)n2)c1 (stereo not drawn)	500 nM
CCn1ccc2ccc(-c3cc(N[C@@H](C)c4cccc(OC)c4)nc(C)n3)cc21	> 1000 nM
COc1cccc([C@H](C)Nc2cc(-c3ccncc3)nc(C)n2)c1	> 1000 nM
Cc1cc(COc2cccc(C(C)Nc3cc(-c4cc5ccccc5n4C)nc(C)n3)c2)n(C)n1 (stereo not drawn)	500 nM
Cc1nc(N[C@@H]2CCCc3ccccc32)cc(-c2ccccc2F)n1	> 1000 nM
Cc1cccc(-c2cc(N[C@@H]3CCCc4ccccc43)nc(C)n2)c1	500 nM
Cc1nc(N[C@@H]2CCCc3ccccc32)cc(-c2ccccc2Cl)n1	> 1000 nM
COc1ccc2c(c1)CCCC2Nc1cc(-c2ccc3ncsc3c2)nc(C)n1 (stereo not drawn)	500 nM
COc1cccc([C@H](C)Nc2cc(-c3cccnc3)nc(C)n2)c1	> 1000 nM
COc1cccc2c1CCCC2Nc1cc(-c2ccc3ncsc3c2)nc(C)n1 (stereo not drawn)	> 1000 nM
Cc1nc(NC(C)c2cccnc2)cc(-c2ccc3ncsc3c2)n1 (stereo not drawn)	500 nM
COC(=O)c1cc(-c2cc(N[C@@H]3CCCc4ccccc43)nc(C)n2)ccc1Cl	500 nM
COCCn1ccc2ccc(-c3cc(N[C@@H]4CCCc5ccccc54)nc(C)n3)cc21	> 1000 nM
COc1cc(-c2cc(NC(C)c3cccc(OCC(N)=O)c3)nc(C)n2)ccc1C (stereo not drawn)	500 nM
Cc1nc(NC(C)c2cccc(OCCCC(=O)O)c2)cc(-c2ccc3ncsc3c2)n1 (stereo not drawn)	500 nM
Cc1nc(NC(C)c2cccc(OCC(=O)O)c2)cc(-c2ccc3ccn(C)c3c2)n1 (stereo not drawn)	500 nM
CCOC(=O)CNC(=O)COc1cccc(C(C)Nc2cc(-c3ccc4ccn(C)c4c3)nc(C)n2)c1 (stereo not drawn)	500 nM
Cc1cccc(-c2cc(NC(C)c3cccc(-c4cnn(C)c4)c3)nc(C)n2)c1 (stereo not drawn)	500 nM
CNC(=O)CNc1cc(-c2cc(N[C@@H]3CCCc4ccccc43)nc(C)n2)ccc1Cl	> 1000 nM
CC(C)CCC(C)NC1C=C(c2ccc3ncsc3c2)N=CN1C (stereo not drawn)	> 1000 nM

Compound	IC50
Cc1nc(N[C@@H]2CCCc3ccccc32)cc(-c2cn[nH]c2)n1	> 1000 nM
COc1cccc([C@H](C)Nc2cc(-c3ccc(C)c(OC)c3)nc(C)n2)c1	500 nM
Cc1nc(NC(C)c2cccc(OCC(=O)N3CCOCC3)c2)cc(-c2ccc3ncsc3c2)n1 (stereo not drawn)	500 nM
COC(=O)COc1cccc(C(C)Nc2cc(-c3cccc(OC)c3)nc(C)n2)c1 (stereo not drawn)	> 1000 nM
Cc1nc(N[C@@H]2CCCc3ccccc32)cc(-c2cccc(O)c2)n1	500 nM
Cc1nc(NCCCC(C)(C)CO)cc(-c2ccc3ncsc3c2)n1	> 1000 nM
COc1cc(-c2cc(NC(C)c3cccc(OCc4ccn(C)n4)c3)nc(C)n2)ccc1C (stereo not drawn)	500 nM
COc1cccc(-c2cc(N[C@@H]3CCCc4ccccc43)nc(C)n2)c1Cl	500 nM
Cc1nc(NC(C)c2cccc(OCc3ccn[nH]3)c2)cc(-c2ccc3ncsc3c2)n1 (stereo not drawn)	500 nM
Cc1nc(N[C@@H]2CCCc3ccccc32)cc(-c2ccc(N)cc2)n1	> 1000 nM
COc1ccc(Cl)c(-c2cc(N[C@@H]3CCCc4ccccc43)nc(C)n2)c1	> 1000 nM
Cc1ccc2c(c1)C(Nc1cc(-c3ccc4ncsc4c3)nc(C)n1)CCO2 (stereo not drawn)	> 1000 nM
Cc1nc(N[C@H]2CCOc3ccccc32)cc(-c2ccc3ncsc3c2)n1	> 1000 nM
Cc1nc(NCc2cccc(-n3cccc3)c2)cc(-c2ccc3ncsc3c2)n1	> 1000 nM
Cc1nc(NC(C)c2cccc(OC(C)(C)C(N)=O)c2)cc(-c2ccc3ncsc3c2)n1 (stereo not drawn)	500 nM
Cc1nc(N[C@@H]2CCCc3ccccc32)cc(-c2cncnc2)n1	> 1000 nM
CCc1coc2ccc(-c3cc(NC(C)c4cccc(OCc5cc(C)nn5C)c4)nc(C)n3)cc12 (stereo not drawn)	> 1000 nM
COc1cccc(-c2cc(NC3CCc4ccccc43)nc(C)n2)c1Cl (stereo not drawn)	500 nM
Cc1nc(NC(C)c2cccc(C(=N)N)c2)cc(-c2ccc3ncsc3c2)n1 (stereo not drawn)	500 nM
COc1cccc([C@H](C)Nc2cc(-c3cccc(F)c3)nc(C)n2)c1	500 nM
COc1cccc(-c2cc(N[C@@H](C)c3cccc(C(F)(F)F)c3)nc(C)n2)c1	> 1000 nM
Cc1cc(C)c2c(c1)C(Nc1cc(-c3ccc4ncsc4c3)nc(C)n1)CCC2 (stereo not drawn)	> 1000 nM
Cc1nc(NC(C)c2ccc(F)c(OCc3ccnn3C)c2)cc(-c2ccc3ncsc3c2)n1 (stereo not drawn)	> 1000 nM
COc1cccc(-c2cc(NC(C)c3cccc(Br)c3)nc(C)n2)c1Cl (stereo not drawn)	500 nM
COc1ccc(F)c(-c2cc(N[C@@H]3CCCc4ccccc43)nc(C)n2)c1	> 1000 nM
